“And” between values parts separate entries of the source, which are not always exact repeats. Identical values can stand only once.
Assays:
[1] = Metabolic stability and enzyme kinetics in liver S9 (conversion to PF-00835231)
[2] = as above; details: for microsomal CLint / Km at 20 min: rat
[3] = Rat 24-h continuous intravenous infusion GLP toxicity study; type: in vivo, Sprague-Dawley rats; details: in vivo
[4] = Dog pharmacokinetic study; details: for clearance / half-life / Vd: male, Beagle, dog, plasma, iv; for Vd: Vdss
[5] = Metabolic stability and enzyme kinetics in liver S9 (conversion to PF-00835231); details: for Km at 20 min / microsomal CLint: dog
[6] = Cytotoxicity in MRC-5 cells; details: human
[7] = Liver S9 binding by equilibrium dialysis; details: for recovery at 6 h: human liver S9, %Recovery
[8] = In vitro blood to plasma ratio; type: in vitro ADME; details: for Plasma concentration (Cp) / Whole blood concentration (Cb): human blood, substrate 1 µM
[9] = liver S9, pH 7.5, CL, unsaturable component, best-fit
[10] = liver S9, pH 7.5, CLintu (unbound CLint)

COc1cccc2[nH]c(C(=O)N[C@@H](CC(C)C)C(=O)N[C@@H](C[C@@H]3CCNC3=O)C(=O)COP(=O)(O)O)cc12 [PF-07304814]
Vmax ([1]; Cyno, best-fit, Two enzyme: MM + Unsaturable): 1186 pmol/min/mg
microsomal CLint ([1]; cynomolgus monkey, liver S9, pH 7.5, CL, Cyno, unsaturable component, best-fit): 3.06 µL/min/mg
microsomal CLint ([1]; cynomolgus monkey, liver S9, pH 7.5, CLint total, Cyno, (vmax / KM) + CL): 150 µL/min/mg
microsomal CLint ([1]; monkey, liver S9, pH 7.5, CLint,2, low affinity kinetic component): 3.06 µL/min/mg
microsomal CLint ([1]; monkey, liver S9, pH 7.5, CLint,app): 150 µL/min/mg
microsomal CLint ([1]; monkey, liver S9, pH 7.5, CLintu (unbound CLint)): 168 µL/min/mg
Km at 20 min ([1]; monkey, monkey liver S9, pH 7.5): 8.1 µM
Vmax ([2]; Rat, best-fit, Two enzyme: MM + Unsaturable): 2188 pmol/min/mg
microsomal CLint [2, 9]: 4.56 µL/min/mg
microsomal CLint ([2]; liver S9, pH 7.5, CLint total, Rat, (vmax / KM) + CL): 45.5 µL/min/mg
microsomal CLint ([2]; liver S9, pH 7.5, CLint,2, low affinity kinetic component): 4.56 µL/min/mg
microsomal CLint ([2]; liver S9, pH 7.5, CLint,app): 45.5 µL/min/mg
microsomal CLint [2, 10]: 51 µL/min/mg
Km at 20 min ([2]; rat liver S9, pH 7.5, KM): 53.4 µM
Km at 20 min ([2]; rat liver S9, pH 7.5, Km, Rat, best-fit, Two enzyme: MM + Unsaturable): 53.4 µM
NOAEL at 24 h ([3]; both sexes, Sprague-Dawley, 24 h continuous IV infusion, read-out: no observed adverse effect level (NOAEL)): 1000 mg/kg
toxicity findings [3]: no test article related findings
%unchanged in urine ([4]; dog IV, PF-07304814 […], PF-00835231 1.0mg/kg): < 0.1%
Total Concn, Mean Data ([4]; dog plasma, PF-07304814 prodrug dosed […] intravenous, time 8 h, mean, BLQ=0.1ng/mL): BLQ
Urine Concn ([4]; dog urine 4-8h, PF-07304814 prodrug dosed […] intravenous, individual dogs, BLQ=1ng/mL for urine): BLQ
clearance ([4]; CLp, dog IV (n=2, range), PF-07304814 […], PF-00835231 1.0mg/kg): 517 mL/min/kg
half-life ([4]; Terminal T1/2, dog IV (n=2, range), PF-07304814 […], PF-00835231 1.0mg/kg): 30 min
Vd ([4]; dog IV (n=2, range), PF-07304814 […], PF-00835231 1.0mg/kg): 9.3 L/kg
clearance ([4]; […], Clearance, Mean Data, PF-07304814 prodrug dosed […] intravenous, mean): 517 mL/min/kg
half-life ([4]; […], Half life, Mean Data, PF-07304814 prodrug dosed […] intravenous, mean): 30.6 min
Vd ([4]; […], Mean Data, PF-07304814 prodrug dosed […] intravenous, mean): 9.3 L/kg
Vmax ([5]; Dog, best-fit, Two enzyme: MM + Unsaturable): 213.7 pmol/min/mg
Km at 20 min ([5]; dog liver S9, pH 7.5, KM): 2.91 µM
Km at 20 min ([5]; dog liver S9, pH 7.5, Km, Dog, best-fit, Two enzyme: MM + Unsaturable): 2.91 µM
microsomal CLint [5, 9]: 1.69 µL/min/mg
microsomal CLint ([5]; liver S9, pH 7.5, CLint total, Dog, (vmax / KM) + CL): 75.2 µL/min/mg
microsomal CLint ([5]; liver S9, pH 7.5, CLint,app): 75.2 µL/min/mg
microsomal CLint [5, 10]: 84 µL/min/mg
CC50 at 5 days [6]: > 100 µM
CC50 at 5 days ([6]; MRC-5 cells): > 100 µM
CC50 at 5 days ([6]; MRC-5 cells, with CP-100356 (efflux inhibitor) 0.5 µM): > 100 µM
Hum liver S9 binding ([7]; clearance input): 0.89
%Stability ([7]; human liver S9 matrix, n=4): 98%
recovery at 6 h ([7]; human, human liver S9 binding, MEAN, n 4): 94%
recovery at 6 h ([7]; human, human liver S9 binding, individual replicates): 95%
fraction unbound at 6 h ([7]; human, human liver S9, fu MEAN, human liver S9, mean, n=4): 0.89
fraction unbound at 6 h ([7]; human, human liver S9, fu, human liver S9, individual replicates 1-4): 0.902
fraction unbound at 6 h ([7]; human, human liver S9, fu, human liver S9 binding, MEAN, n 4): 0.89
fraction unbound at 6 h ([7]; human, human liver S9, fu, human liver S9 binding, individual replicates): 0.867
fraction unbound at 6 h, 2 µM ([7]; human, liver S9, Unbound fraction fu (%CV), human liver S9, 0.03mg/mL protein, 2 µM substrate): 0.89
%Recovery, human liver S9 binding ([7]; individual replicates): 88% and 99%
fu, human liver S9 binding ([7]; individual replicates): 0.888
%Stability, human liver S9 binding ([7]; mean, n 4): 98%
Measured blood partitioning / Human blood partitioning [8]: 0.6
Plasma concentration (Cp) ([8]; Mean): 1970 nM
Whole blood concentration (Cb) ([8]; Mean): 1.08 µM
Plasma concentration (Cp) ([8]; individual replicates): 2010 nM and 2000 nM and 1900 nM and 1950 nM
Whole blood concentration (Cb) ([8]; individual replicates): 1.11 µM and 1.06 µM and 1.1 µM

Reference: publication PMC8523698, “Preclinical characterization of an intravenous coronavirus 3CL protease inhibitor for the potential treatment of COVID19” (Nature Communications, 2021)
